System: SARS-CoV-2
Assay: microbe, parasite or virus in culture
Conditions: Severe acute respiratory syndrome coronavirus 2, Vero C1008, 48 h

SMILES | IC50 [µM] | IC50 (read-out: pIC50 (converted)) [µM]
CCc1ccc(CCOc2ccc(CC3SC(=O)NC3=O)cc2)nc1 (centres undefined) [PIOGLITAZONE] | > 20 | > 20
CCc1ccc(OCc2ccccc2C(=O)Nc2ccc3nc(C)cc(N)c3c2)cc1 | > 20 | > 20
CCCCC(CC)C1NC(=O)N(SC(Cl)(Cl)Cl)C1=O (centres undefined) [CHLORDANTOIN] | > 20 | > 20
N[C@@H](Cc1ccc(O)c(O)c1)C(=O)O [LEVODOPA] | > 20 | > 20
CCCS(=O)(=O)Nc1ccc(F)c(C(=O)c2c[nH]c3ncc(-c4ccc(Cl)cc4)cc23)c1F [VEMURAFENIB] | > 20 | > 20
CC(=O)N[C@H]1[C@H]([C@H](O)[C@H](O)CO)O[C@](O)(C(=O)O)C[C@@H]1O | > 50.1 | > 50.1
COc1cc(CNC(=O)CCCC/C=C/C(C)C)ccc1O [CAPSAICIN] | > 20 | > 20
CC1(C)CC[C@]2(C(=O)O)CC[C@]3(C)C(=CC[C@@H]4[C@@]5(C)CC[C@H](O)C(C)(C)[C@@H]5CC[C@]43C)[C@@H]2C1 [OLEANOLIC_ACID] | > 20 | > 20
C=C[C@@]1(C)CC(=O)[C@]2(O)[C@@]3(C)[C@@H](O)CCC(C)(C)[C@@H]3[C@H](O)[C@H](OC(C)=O)[C@@]2(C)O1 [COLFORSIN] | > 20 | > 20
COc1cc2c(cc1O)CCNC2C (centres undefined) [SALSOLINE] | > 20 | > 20
CCOc1cc(N)c([N+](=O)[O-])cc1C(=O)NC1CCN(CC2CC=CCC2)CC1 (centres undefined) [CINITAPRIDE] | > 20 | > 20
NNC(=O)c1ccncc1 [ISONIAZID] | > 20 | > 20
Cn1c(=O)c2c(ncn2CCO)n(C)c1=O [ETOFYLLINE] | > 20 | > 20
O=C(NC1CCN(CCc2c[nH]c3ccccc23)CC1)c1ccccc1 [INDORAMIN] | > 20 | > 20
CCC1=C[C@@H]2CN3CCc4c([nH]c5ccccc45)[C@@](C(=O)OC)(C2)[C@H]13 | > 20 | > 20
CC(=O)Nc1ccccc1 [ACETANILIDE] | > 20 | > 20
CCCCCCc1ccc(O)cc1O [HEXYLRESORCINOL] | > 20 | > 20
CC(=O)C(=O)O [PYRUVATE] | > 20 | > 20
OC[C@H]1O[C@@H](O[C@@H]2[C@@H](CO)O[C@](O)(CO)[C@H]2O)[C@H](O)[C@@H](O)[C@H]1O [LACTULOSE] | > 20 | > 20

SMILES | IC50 [µM] | IC50 (read-out: pIC50 (converted)) [µM]
OC[C@H]1O[C@@H](c2ccc(F)c(Cc3cc4ccccc4s3)c2)[C@H](O)[C@@H](O)[C@@H]1O [IPRAGLIFLOZIN] | > 20 | > 20
c1ccc2c(c1)CN1CCCC1=N2 | > 20 | > 20
COc1cc(C(=O)C(=O)N(C)[C@@H](Cc2ccc(Cl)cc2)C(=O)N(Cc2ccccc2)C(CCc2ccncc2)CCc2ccncc2)cc(OC)c1OC [TIMCODAR] | > 20 | > 20
C[C@]12N[C@H](Cc3ccccc31)c1ccccc12 [DIZOCILPINE] | > 20 | > 20
CC(CC(c1ccccc1)c1ccccc1)N(C)C (centres undefined) [TRIMETHYLDIPHENYLPROPYLAMINE] | > 20 | > 20
c1ccc(-c2cc(CCC3CCNCC3)c3ccccc3n2)cc1 [PIPEQUALINE] | > 20 | > 20
O=C(Nc1ccccc1F)N[C@@H]1N=C(c2ccccc2)c2ccccc2NC1=O | > 20 | > 20
Oc1cccc(O)c1 [RESORCINOL] | > 20 | > 20
O=[N+]([O-])/N=C1\NCCN1Cc1ccc(Cl)nc1 [IMIDACLOPRID] | > 20 | > 20
C[C@]12CC[C@H](O)CC1CC[C@@H]1[C@@H]2CC[C@]2(C)C(=O)CC[C@@H]12 (some centres undefined) | > 20 | > 20
C=C[C@@]1(C)CC(=O)[C@@]2(O)[C@](C)(O1)[C@@H](OC(C)=O)[C@@H](OC(=O)CCN(C)C)C1C(C)(C)CC[C@H](O)[C@@]12C (some centres undefined) | > 20 | > 20
CCN1CCN(Cc2ccc(-c3cc4c(N[C@H](C)c5ccccc5)ncnc4[nH]3)cc2)CC1 [AEE-788] | > 20 | > 20
CN(C)CCOC(C)(c1ccccc1)c1ccccn1 (centres undefined) [DOXYLAMINE] | > 20 | > 20
CCOc1ccc(-c2ccc(Cn3c(CC(C)(C)C(=O)O)c(SC(C)(C)C)c4cc(OCc5ccc(C)cn5)ccc43)cc2)cn1 [FIBOFLAPON] | > 20 | > 20
Nc1ccc(O)c(C(=O)O)c1 [MESALAMINE] | > 20 | > 20
Clc1ccc(OC[C@@H]2CCN2)cn1 | > 20 | > 20
O=c1c(-c2ccccc2)c1-c1ccccc1 [DIPHENCYPRONE] | > 20 | > 20
CC1(C)CCC(C)(C)c2cc(NC(=O)c3ccc(C(=O)O)cc3)ccc21 [TAMIBAROTENE] | > 20 | > 20
